In general, inhibition refers to the change of the read-out against control, counted positive when it falls. One may read the IC50 as the concentration that gives 50% inhibition.

Experimental findings from patent US20260347330A1, “N-METHYL-D-ASPARTATE RECEPTOR (NMDAR) ANTAGONISTS AND USES THEREOF” (Bexson Biomedical, Inc., priority 2022, published 2026) are described below.

For experiment [1], the target named is NMDAR. Nature of the experiment: NMDA receptor [3H]-MK-801 competition radioligand binding in rat forebrain. The following applies: [3H]-MK-801 1 nM competition, 1 mM glutamate, 0.1 mM glycine, pH 7.4, 2 h ambient, N = 1-4. The method, then:
Rat forebrains from 7-8 week old Sprague-Dawley rats (BioChemed, USA) were homogenized in a buffer containing 10 mM HEPES and 1 mM EDTA (pH 7.4) using a mechanical homogenizer (Janke-Kunkel Ultra-Turrax T25). A 10 mL volume was used per brain for all steps involving suspension of the brain homogenate tissue. The brain homogenate was then centrifuged (15 minutes at 20,000 RPM and 4 ° C). The supernatant was carefully poured off and the pellet was resuspended in fresh 10 mM HEPES and 1 mM EDTA containing buffer. This process was repeated 5 times. Following the 5th centrifugation, the buffer was replaced with a buffer containing 10 mM HEPES (pH 7.4). The homogenate was then incubated in a water bath at 37 ° C in the dark (covered with foil). Centrifugation was then repeated 3 additional times and after resuspending in the HEPES buffer, the final homogenate was aliquoted and stored at −80 ° C until use. Protein concentration of the homogenate was determined by utilizing the Bradford method using Coomassie protein assay reagent (Sigma, USA) with Bovine Serum albumin (Sigma, USA) as a standard.
At the time of the experiment, the homogenate was diluted to a final concentration of […] in 10 mM HEPES buffer, 1 mM glutamate, and 0.1 mM glycine (pH 7.4) and combined with 1 nM (+)-[3H]-MK-801 (Perkin Elmer NET972250UC), unlabeled competitor compounds at varying concentrations, or 30 uM MK-801 to determine non-specific binding, in a total volume of 1 mL in a 96 well plate. The protein homogenate is always added to the wells last. The plates were covered with aluminum foil, and placed on a mechanical shaker (250 RPM) for 2 h at ambient temperature ([…]). After 2 h, the homogenate was collected by vacuum filtration using a Unifilter-96 Cell Harvester (Perkin Elmer) over presoaked UniFilter-96 GF/C P Microplates (Perkin Elmer) and filters were washed with room temperature 10 mM HEPES buffer (pH 7.4) (3×1 mL). The filter plates were dried overnight in a fume hood. The next day, the bound tritium was measured via liquid scintillation counting with […] MicroScint-O (Perkin Elmer) added per well, using a MicroBeta2 Plate Reader with 6-detectors scintillation counter (Perkin Elmer) at 55% efficiency. IC50 value estimates were determined in GraphPad Prism 9.3.1 using non-linear regression (single site fit) with log-concentration plotted against percent specific binding. Ki values were calculated using the equation of Cheng and Prusoff. […] Experiments were performed in duplicate. N=1-4 per compound.

Experiment [2] addresses T1, human Dopamine Transporter (Homo sapiens, UniProt Q01959).
T1 construct: host or cells: CHO
Kind of experiment: Human dopamine reuptake transporter (DAT) inhibition functional study, ASP+ uptake in CHO cells. Format: cell-based. The following applies: at 10,000 nM, 10 μM ASP+, 1 h, CHO cells stably expressing human DAT. The method, then:
CHO cells stably expressing human Dopamine Transporter Protein (Valiscreen® Perkin Elmer RBHDATM-K) were cultured in 150 mm Tissue Culture dishes (Cell Treat 229651) at 37 ° C and 5% CO2. Ham's F-12 Nutrient Mix (Gibco, USA) was supplemented with 10% dialyzed FBS (Gibco, USA), 100 µg/ml Geneticin (Gibco, USA), and 100 units/ml Penicillin and Streptomycin (Gibco, USA) as the culture media. Cells were maintained on a consistent splitting and assay schedule and utilized until passage 30 (no change in control experiments were observed up to this point).
Cells were detached from their growth dishes using Trypsin-EDTA (0.25%) (Gibco, USA) at 70-80% confluency. The cells were counted and diluted in culture media to a density of 300,000 cells/mL. 200 µl of this mixture was added to each well of a clear bottom, black-walled 96 well plate (Coming 3603, USA). Plates were incubated in the laminar flow hood for one hour prior to being placed in the cell culture incubator in order to encourage even cell distribution across the entire well surface.
The next day, Krebs-Ringer HEPES (KRH) Buffer pH 7.4 was prepared (10 mM HEPES, 130 mM NaCl, 1.3 mM KCl, 2.2 mM CaCl2, 1.2 mM MgSO4, 1.2 mM KH2PO4) and titrated with 6N NaOH. This buffer was stored in a 4 ° C refrigerator for up to 4 days (after which it was discarded). Additionally, a solution containing KRH buffer and 330 µM Trypan Blue (Sigma T6146-25G), a solution of 20 mM ASP+(MedChem Express, NJ, USA) dissolved in DMSO, were both prepared. The 20 mM DMSO stock of ASP+ was diluted to a working concentration of 40 µM in KRH buffer. DMSO solutions of 40 mM GBR-12935 dihydrochloride (MedChem Express, NJ, USA) and 40 mM test compounds were also prepared. DMSO solutions of test compounds were then diluted to a range of […]-40 μM in KRH Buffer with 1% additional DMSO added to provide consistent DMSO concentration in all samples. […] The final DMSO concentration in each well was 0.3%. […] KRH buffer with DMSO “vehicle control” served as the total fluorescence control to represent the maximum amount of substrate uptake without DAT transporter inhibition.
At the time of assay, cell media was carefully removed from the wells via pipette aspiration. 100 μL of KRH buffer was then added to all wells. Both controls, non-specific and total fluorescence stock solutions were then added to the plate (50 µL of either 400 µM GBR-12935 or KRH DMSO buffer respectively). Additionally, GBR-12935 and test compounds were added to the plate ([…] for each sample). The 10,000 nM concentration of test compound was run in triplicate wells. Next, […] ASP+(final concentration of 10 μM) was added to each well initiating the experiment. Cells were placed in the cell culture incubator for one hour, at which point 20 µL of 330 µM Trypan Blue was added to each well to quench extracellular fluorescence. The cells were then placed in the microplate reader (BioTek Synergy Neo 2), using Gen5 Ver 3.11 software. The reader was preheated to 37 ° C and following a brief orbital shake, intracellular fluorescence was measured using a fluorescence intensity reading. Intracellular ASP+ was excited at 430 nm and emission read at 510 nm via a bottom read using the extended gain settings and high lamp energy setting.

The target of experiment [3] is T2, hSERT (Homo sapiens, UniProt P31645).
T2 construct: no vendor name is printed for this cell line) RBHSTM-K; host or cells: HEK293
T2 sequence (P31645 whole entry): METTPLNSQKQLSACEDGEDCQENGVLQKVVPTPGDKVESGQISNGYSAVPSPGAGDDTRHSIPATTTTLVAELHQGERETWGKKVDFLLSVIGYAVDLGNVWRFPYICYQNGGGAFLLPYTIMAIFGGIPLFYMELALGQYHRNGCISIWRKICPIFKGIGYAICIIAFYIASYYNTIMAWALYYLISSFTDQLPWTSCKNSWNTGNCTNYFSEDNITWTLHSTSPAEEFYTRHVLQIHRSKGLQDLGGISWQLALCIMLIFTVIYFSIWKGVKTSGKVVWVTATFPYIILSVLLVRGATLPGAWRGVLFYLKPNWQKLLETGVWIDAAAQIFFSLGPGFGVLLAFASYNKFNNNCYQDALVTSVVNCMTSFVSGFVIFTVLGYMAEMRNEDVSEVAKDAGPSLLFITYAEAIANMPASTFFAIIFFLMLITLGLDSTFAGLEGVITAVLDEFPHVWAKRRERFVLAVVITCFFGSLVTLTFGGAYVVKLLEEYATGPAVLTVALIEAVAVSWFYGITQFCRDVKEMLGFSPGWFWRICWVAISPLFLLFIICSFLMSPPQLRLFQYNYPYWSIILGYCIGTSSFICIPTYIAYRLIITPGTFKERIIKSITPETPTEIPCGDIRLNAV
Kind of experiment: SERT [3H]-citalopram competition radioligand binding, hSERT expressing HEK293 cell membranes. On the procedure:
Valiscreen Serotonin Transporter (SERT) (Human) Cell Line (HEK293 host cells, Product No: RBHSTM-K) grown in DMEM/F12 media with 10% FBS, 0.1 mg/ml Geneticin, 1% GlutaMAX, and 1% Penicillin-Streptomycin added were used to prepare SERT membrane fractions. Cells were grown in 150 mm dishes and harvested between 70-90% confluency, passages 5-20. Cells were detached using a buffer containing 1 mM HEPES and 2 mM EDTA (pH 7.4). After detachment, the cells were homogenized using a handheld homogenizer, and the lysate was centrifuged (30 minutes at 30,000×G) at 4 ° C The resulting pellet was resuspended in storage buffer containing 20 mM HEPES, 10 mM MgCl2, 0.1 mM EDTA, and 10% sucrose at pH 7.4. Protein concentration was determined via the Bradford method using Coomassie protein assay reagent (Sigma, USA) with Bovine Serum albumin (Sigma, USA) as standard.
Buffer containing 10 mM HEPES, 120 mM NaCl, and 5 mM KCl (pH 7.4) was added to SERT membranes to dilute to a final protein concentration of 5 µg/mL per well. Additionally, 0.5 nM [3H]-Citalopram (Perkin Elmer NET1039250UC) was added, along with unlabeled competitors at various concentrations or […] citalopram for nonspecific binding controls, bringing the total volume to 1 ml in a 96 well plate. SERT membranes were always added last to each well. The plates were covered from light with aluminum foil and incubated at ambient temperature ([…]) and placed on a mechanical shaker (250RPM) for 2 h. After 2 h, SERT protein was captured via vacuum filtration using a Unifilter-96 Cell Harvester (Perkin Elmer) over presoaked UniFilter-96 GF/C P Microplates (Perkin Elmer) and filters were washed with room temperature 10 mM HEPES, 120 mM NaCl, and 5 mM KCl buffer (pH 7.4) (3×1 mL). The filter plates were dried overnight in a fume hood. The next day, the SERT bound tritium was measured via liquid scintillation counting with MicroScint-O (Perkin Elmer), using a MicroBeta2 Plate Reader with 6-detectors scintillation counter (Perkin Elmer) at 55% efficiency. IC50 value estimates were determined in GraphPad Prism 9.3.1 using non-linear regression (single site fit) with log-concentration plotted against percent specific binding. […] For each experiments compounds were run in duplicate. N=1-3 repeats per compound.

The mark [4] stands for this setting: 0.5 nM [3H]-citalopram competition, hSERT HEK293 membranes, pH 7.4, 2 h ambient, N = 1, read-out: SERT pKi (converted).

Where two headings read alike, the source gives them in different places.

T1 sequence (Q01959 whole entry): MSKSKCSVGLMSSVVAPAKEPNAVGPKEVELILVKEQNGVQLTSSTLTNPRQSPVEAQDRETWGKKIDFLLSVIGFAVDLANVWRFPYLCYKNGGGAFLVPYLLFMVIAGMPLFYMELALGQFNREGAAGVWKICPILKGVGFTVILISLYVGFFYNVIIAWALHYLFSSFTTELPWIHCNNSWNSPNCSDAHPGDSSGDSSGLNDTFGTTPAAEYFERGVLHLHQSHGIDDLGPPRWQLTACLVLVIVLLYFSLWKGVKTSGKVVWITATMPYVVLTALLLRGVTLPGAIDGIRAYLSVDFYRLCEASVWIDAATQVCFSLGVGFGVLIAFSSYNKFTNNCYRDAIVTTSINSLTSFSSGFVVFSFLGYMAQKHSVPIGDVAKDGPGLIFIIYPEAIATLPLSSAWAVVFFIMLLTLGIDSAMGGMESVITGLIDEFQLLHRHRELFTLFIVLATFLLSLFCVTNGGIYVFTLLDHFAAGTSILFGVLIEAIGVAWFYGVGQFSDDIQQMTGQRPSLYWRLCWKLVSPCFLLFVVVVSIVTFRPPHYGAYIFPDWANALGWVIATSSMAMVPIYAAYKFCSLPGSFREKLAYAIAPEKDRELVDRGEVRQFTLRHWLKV

For the compound `NC(c1ccccc1)(C1CCCC1)C1CCC1` (centres unmarked) [Compound 7, Cyclobutyl(cyclopentyl)(phenyl)methanamine], in experiment [1], the “NMDAR binding affinity pKi (mean ± SEM)” value was 5.63 ± 0.029. Also, the inhibition at 10 µM in experiment [2] is 24.1%.

Take `CCC(N)(c1ccccc1)C1CCCC1` (centres unmarked) [Compound 4, 1-cyclopentyl-1-phenylpropan-1-amine]: the “NMDAR binding affinity pKi (mean ± SEM)” value in experiment [1] amounted to 6.64 ± 0.101. Further, the IC50 in experiment [3] is above 10000 nM. In experiment [2], the inhibition at 10 µM came out at 24.3%.

On to `NC(CC1CCC1)(c1ccccc1)C1CCCC1` (centres unmarked) [Compound 9, 2-cyclobutyl-1-cyclopentyl-1-phenylethan-1-amine], for which, in experiment [1], the “NMDAR binding affinity pKi (mean ± SEM)” value was 5.80 ± 0.095. Also, the IC50 in experiment [3] is above 10000 nM. The inhibition at 10 µM in experiment [2] is -4%.

On to `NC(c1ccccc1)C1CCCCC1` (centres unmarked) [Compound 28, Cyclohexyl(phenyl)methanamine], for which the “NMDAR binding affinity pKi (mean ± SEM)” value in experiment [1] is recorded as 4.97 ± 0.054. Also, in experiment [2], the inhibition at 10 µM is 17.9%.

With `CC(N)(c1ccccc1)C1CCCCC1` (centres unmarked) [Compound 11, 1-cyclohexyl-1-phenylethan-1-amine], the “NMDAR binding affinity pKi (mean ± SEM)” value in experiment [1] amounted to 6.09 ± 0.120. In experiment [3], this compound gave an IC50 above 10000 nM. In addition, the inhibition at 10 µM in experiment [2] was found to be 11.7%.

As to `CC(NC1CCC1)(c1ccccc1)C1CCCC1` (centres unmarked) [Compound 21, N-(1-cyclopentyl-1-phenylethyl)cyclobutanamine], the “NMDAR binding affinity pKi (mean ± SEM)” value in experiment [1] is recorded as 8.06 ± 0.021. Besides, in experiment [2], the inhibition at 10 µM came to 87.3%.

On to `C=CCCC(N)(c1ccccc1)C1CCCC1` (centres unmarked) [Compound 8, 1-cyclopentyl-1-phenylpent-4-en-1-amine], for which the “NMDAR binding affinity pKi (mean ± SEM)” value in experiment [1] was 6.24 ± 0.444. Further, in experiment [2], the inhibition at 10 µM was 3.1%.

For the compound `C=CCC(N)(c1ccccc1)C1CCCC1` (centres unmarked) [Compound 6, 1-cyclopentyl-1-phenylbut-3-en-1-amine], the “NMDAR binding affinity pKi (mean ± SEM)” value in experiment [1] came to 5.89 ± 0.072. In addition, the Ki in experiment [3] is 3160 nM. The inhibition at 10 µM in experiment [2] worked out at 23.1%.

Regarding `CNC(C)(c1ccccc1)C1CCCC1` (centres unmarked) [Compound 15, 1-cyclopentyl-N-methyl-1-phenylethan-1-amine], the “NMDAR binding affinity pKi (mean ± SEM)” value in experiment [1] is listed as 6.56 ± 0.064. The compound further gave a Ki in experiment [3] of 501 nM. The inhibition at 10 µM in experiment [2] was 18.2%.

Consider `CC(c1ccccc1)(C1CCCCC1)N1CCCCC1` (centres unmarked) [Compound 23, 1-(1-cyclohexyl-1-phenylethyl)piperidine], for which the “NMDAR binding affinity pKi (mean ± SEM)” value in experiment [1] was 5.52 ± .118. For the same compound, in experiment [3] (setting [4]), the Ki was 2630 nM. Moreover, in experiment [2], the inhibition at 10 µM was 71.6%.

For the compound `CC(c1ccccc1)(C1CCCC1)N1CCCCC1` (centres unmarked) [Compound 22, 1-(1-cyclopentyl-1-phenylethyl)piperidine], the “NMDAR binding affinity pKi (mean ± SEM)” value in experiment [1] is 6.08 ± .0633. In experiment [3] (setting [4]), the Ki is 479 nM.

In the case of `CC(C)C(C)(N)c1ccccc1` (centres unmarked) [Compound 25, 3-methyl-2-phenylbutan-2-amine], in experiment [1], the “NMDAR binding affinity pKi (mean ± SEM)” value is recorded as 5.86 ± 0.044. For the same compound, the inhibition at 10 µM in experiment [2] stood at 37.6%.

Take `CCNC(C)(c1ccccc1)C1CCCC1` (centres unmarked) [Compound 16, 1-cyclopentyl-N-ethyl-1-phenylethan-1-amine]: the “NMDAR binding affinity pKi (mean ± SEM)” value in experiment [1] was 6.93 ± 0.073. In addition, the Ki in experiment [3] (setting [4]) is 1120 nM. The inhibition at 10 µM in experiment [2] stood at 16%.

With `CCC(C)NC(C)(c1ccccc1)C1CCCC1` (centres unmarked) [Compound 20, N-(1-cyclopentyl-1-phenylethyl)butan-2-amine], the “NMDAR binding affinity pKi (mean ± SEM)” value in experiment [1] amounted to 7.35 ± 0.075. The compound further gave a Ki in experiment [3] of 2450 nM. The inhibition at 10 µM in experiment [2] amounted to 56.7%.

As to `NC(c1ccccc1Cl)C1CCCC1` (centres unmarked) [Compound 29, (2-chlorophenyl)(cyclopentyl)methanamine], in experiment [1], the “NMDAR binding affinity pKi (mean ± SEM)” value was determined as 5.47 ± 0.030. In experiment [3], this compound came in with an IC50 above 10000 nM. Also, in experiment [2], the inhibition at 10 µM came out at 10.3%.

`NC(c1ccccc1)(C1CCCC1)C1CC1` (centres unmarked) [Compound 5, Cyclopentyl(cyclopropyl)(phenyl)methanamine]: in experiment [1], the “NMDAR binding affinity pKi (mean ± SEM)” value was 6.23 ± 0.046. In addition, the IC50 in experiment [3] is above 10000 nM. In experiment [2], the inhibition at 10 µM is 1.3%.

With `CC(N)(c1ccccc1)C1CC1` (centres unmarked) [Compound 2, 1-cyclopropyl-1-phenylethan-1-amine], the “NMDAR binding affinity pKi (mean ± SEM)” value in experiment [1] is on record as 6.19 ± 0.162. The IC50 in experiment [3] is above 10000 nM.
